Measured values taken from paper PMC9919490, “Synthesis and Biological Evaluation of Novel Dispiro-Indolinones with Anticancer Activity” (Molecules, 2023).
Where two headings read alike, the source gives them in different places.

Assays:
[1] = tested on: MDM2–p53 PPI; settings: Figure 5a, template molecules; cited from earlier work
[2] = tested on: SJSA1 human osteosarcoma cells; settings: cited from earlier work
[3] = at 50 mg/kg, mice; cited from earlier work
[4] = target: MDM2; settings: no reference given; cited from earlier work
[5] = set-up: method as in PMID 22524527, PMID 11495595, PMID 20218717; settings: Figure 3; cited from earlier work
[6] = tested on: HepG2 cells; set-up: method as in PMID 22524527, PMID 11495595, PMID 20218717; settings: Figure 3; cited from earlier work
[7] = tested on: LNCaP cells expressing AR; set-up: method as in PMID 22524527, PMID 11495595, PMID 20218717; settings: Figure 3; cited from earlier work
[8] = tested on: LNCaP; settings: MTT tests; cited from earlier work
[9] = tested on: HCT116; settings: MTT tests; cited from earlier work
[10] = set-up: method as in PMID 25384157; settings: rats; cited from earlier work
[11] = tested on: LNCaP cells; test: MTT cytotoxicity assay, LNCaP (p53 pos); assay type: cell-based; settings: 48 h
Experimental: (§1) The synthesized compounds were tested for their ability to block the proliferation of the selected model cell lines: LNCaP (p53+), PC3 (p53-), HCT^wt (p53+), and HCT^−/− (p53-) cells. The assay was carried out using the standard MTT (3-(4,5-dimethylthiazol-2-yl)2,5-diphenyl tetrazolium bromide) assay based on the modified approach reported by Ferrari and colleagues. […] Differences in IC50 values against these cell lines were used to assess the selectivity of the compounds.
(§2) Model cell lines were purchased from the in stock collection of the N.N. Blokhin Russian Cancer Research Center (RAMS). Cells were accurately maintained in the recommended media, supplemented with 10% heat-inactivated FBS (Invitrogen) and 2 mmol/L L-glutamine (Invitrogen).
(§3) First, 4000 cells per well were plated out in 140 µL of DMEM (with 10% FBS) in 96-well plates and incubated in 5% CO2 for 24 h at 37 °C without treatment. […] The cells were treated for 48 h with […] (eight dilutions) concentrations of the substances (each in triplicate) or doxorubicin (0.3 nM–600 nM, eight dilutions) as a control substance. After the incubation, 15 µL of MTT solution in PBS (5 mg/mL) was added, and the cells were incubated for 2 h, followed by removal of the media and addition of 120 µL of DMSO. […] Cell survival rates were determined by the comparison of optical density with the corresponding untreated control cell culture. Dose-dependent curves and the corresponding IC50 values were calculated using “GraphPad Prism 6” software (GraphPad Software, Inc., San Diego, CA, USA).

[12] = tested on: PC3 cells; test: MTT cytotoxicity assay, PC3 (p53 neg); assay type: cell-based
Experimental: as §1, §2, §3

[13] = tested on: HCT^wt cells; test: MTT cytotoxicity assay, HCT^wt (p53 pos); assay type: cell-based; settings: 48 h
Experimental: as §1, §2, §3

[14] = tested on: HCT^−/− cells; test: MTT cytotoxicity assay, HCT^−/− (p53 neg); assay type: cell-based; settings: 48 h
Experimental: as §1, §2, §3

[15] = tested on: xenograft models of human cancer; set-up: method as in PMID 26041888; settings: two types of xenograft models, oral administration; cited from earlier work
[16] = tested on: HCT116p53−/−; test: Mechanism of cell death, flow cytometry 7AAD/annexin V, HCT116p53−/−; assay type: cell-based; settings: 7AAD/annexin V staining
[17] = tested on: HCT116wt; test: Mechanism of cell death, flow cytometry 7AAD/annexin V, HCT116wt; assay type: cell-based; settings: 7AAD/annexin V staining
[18] = tested on: PC3; test: Mechanism of cell death, flow cytometry 7AAD/annexin V, PC3; assay type: cell-based; settings: 7AAD/annexin V staining

Structure (SMILES)	IC50 [11] [µM]	IC50 ([12]; 48 h) [µM]	IC50 [13] [µM]	IC50 [14] [µM]	also measured
CC(C)(C)CC1NC(C(=O)NCCN)C(c2cccc(Cl)c2F)C12C(=O)Nc1cc(Cl)ccc12 (stereo not drawn) [XX]					IC50 [1]: 0.0094 µM
COc1cc(NC(=O)C[C@@]2(C)C[C@H](c3cccc(Cl)c3)[C@@H](c3ccc(Cl)c(F)c3)N([C@H](CS(=O)(=O)C(C)(C)C)C3CC3)C2=O)ccc1C(=O)O [AM-7209]					IC50 [2]: 0.0016 µM
CC(C)(C)C[C@H]1N[C@@H](C(=O)NCC[C@H](O)CO)[C@H](c2cccc(Cl)c2)[C@@]12C(=O)Nc1cc(Cl)c(F)cc12.Cl [MI-219]					oral bioavailability [3]: 55–65%; Ki [4]: 0.005 µM
O=C1NC(=S)N[C@@]12O[C@H](CO)[C@@H](O)[C@H](O)[C@H]2O [XVIII]					Ki [5]: 0.007 ± 0.0011 µM
N#Cc1cc(N2C(=O)C3(CCC3)N(c3ccc(C(=O)NCCCN4CCCC4)c(F)c3)C2=S)ccc1C(F)(F)F [XIX]					IC50 [6]: < 1 µM
Cc1ccc(N2C(=S)N(c3ccc(C#N)c(C(F)(F)F)c3)C(=O)C23CCC3)cc1 [XVII]					IC50 [7]: 0.124 µM
CCOc1cc(C(C)(C)C)ccc1C1=N[C@@](C)(c2ccc(Cl)cc2)[C@@](C)(c2ccc(Cl)cc2)N1C(=O)N1CCN(CCCS(C)(=O)=O)CC1 [RG-7112]					CC50 [8]: 0.18 µM; CC50 [9]: 0.54 ± 0.12 µM
CC[C@@H]([C@H](C)O)N1C(=O)[C@@](C)(CC(=O)O)C[C@H](c2cccc(Cl)c2)[C@H]1c1ccc(Cl)cc1 [AM-8553]					oral bioavailability [10]: 100%
CN1C[C@H](c2ccc(Cl)c(Cl)c2)[C@]2(NC(=S)N(c3ccccc3)C2=O)[C@]12C(=O)Nc1ccc(Br)cc12 (racemic) [Compound 16]	> 100	> 100	7.6 ± 1.6	8.8 ± 3.5	
CCOc1ccc(N2C(=O)[C@]3(NC2=S)[C@@H](c2ccc(F)cc2)CN(C)[C@@]32C(=O)Nc3ccc(Br)cc32)cc1 (racemic) [Compound 31]	> 100	> 100	> 100	> 100	
CN1C[C@H](c2ccncc2)[C@]2(NC(=S)N(c3ccccc3)C2=O)[C@]12C(=O)Nc1ccc(Br)cc12 (racemic) [Compound 20]	> 100	> 100	> 100	> 100	
CN1CC(c2ccccc2Cl)C2(NC(=S)N(c3ccc(O)cc3)C2=O)C12C(=O)Nc1ccc(Br)cc12 (stereo not drawn) [Compound 54, 1-(4-hydroxyphenyl)-4’-(2-chlorophenyl)-1’-methyl-5’’’-bromo-2-thiooxodispiro[imidazolidine-4,3’-pyrrolidine-2’,3”-indoline]-2”,5-dione]	9.5 ± 2.5	20 ± 8.4	> 100	> 100	
C#CCOc1ccc([C@H]2CN(C)[C@@]3(C(=O)Nc4ccc(Br)cc43)[C@@]23NC(=S)N(c2ccc(OCC)cc2)C3=O)cc1 (racemic) [Compound 34]	> 100	> 100	> 100	> 100	
CN1C[C@H](c2ccccc2Cl)[C@]2(NC(=S)N(c3ccccc3)C2=O)[C@]12C(=O)Nc1ccc(Cl)cc12 (racemic) [Compound 11]	> 100	> 100	> 100	> 100	
CN1CC(c2ccccc2)C2(NC(=S)N(c3ccccc3)C2=O)C12C(=O)Nc1ccccc12 (stereo not drawn) [Compound 4]			> 100	> 100	IC50 ([11]; Homo sapiens, LNCaP): > 100 µM; IC50 ([12]; Homo sapiens, PC-3, 48 h): > 100 µM; melting point: 211 to 212 °C
COc1ccc(N2C(=O)[C@]3(NC2=S)[C@@H](c2cccc(Cl)c2)CN(C)[C@@]32C(=O)Nc3ccccc32)cc1 (racemic) [Compound 32]	> 100	> 100	> 100	> 100	

Structure (SMILES)	IC50 [11] [µM]	IC50 ([12]; 48 h) [µM]	IC50 [13] [µM]	IC50 [14] [µM]	also measured
CC(c1ccccc1)N1C(=O)C2(NC1=S)C(c1ccc(Cl)cc1)CN(C)C21C(=O)Nc2ccc(Cl)cc21 (mixture of isomers) [Compound 66]	> 100	> 100	> 100	> 100	
CN1C[C@H](c2ccc(Cl)cc2)[C@]2(NC(=S)N(c3ccc(F)c(Cl)c3)C2=O)[C@]12C(=O)Nc1ccc(Cl)cc12 (racemic) [Compound 42]	> 100	> 100	> 100	> 100	
CN1C[C@H](c2ccc(Cl)cc2)[C@]2(NC(=S)N(c3ccc(O)cc3)C2=O)[C@]12C(=O)Nc1ccc(Cl)cc12 (racemic) [Compound 52]	> 100	> 100	> 100	> 100	
C#CCN1C(=O)[C@]2(c3ccccc31)N(C)C[C@H](c1cccc(Cl)c1)[C@]21NC(=S)N(c2ccc(OC)c(Cl)c2)C1=O [Compound 69]			> 100	> 100	IC50 ([11]; Homo sapiens, LNCaP): > 100 µM; IC50 ([12]; Homo sapiens, PC-3, 48 h): > 100 µM; melting point: 199 to 200 °C
CC(C)(C)C[C@@H]1N[C@@H](C(=O)N[C@H]2C[C@@](C)(O)C2)[C@H](c2cccc(Cl)c2F)[C@]12C(=O)Nc1cc(Cl)ccc12 [MI-888]					tumor regression [15]: rapid, complete, and durable tumor regression; IC50 [2]: ~0.09 µM
CN1C[C@H](c2ccc(Cl)cc2)[C@]2(NC(=S)N(c3ccccc3)C2=O)[C@]12C(=O)Nc1ccc(Br)cc12 (racemic) [Compound 13]	1.2 ± 0.6	11.3 ± 1.2	3.5 ± 1.2	> 100	mechanism of cell death [16]: necrosis/late apoptosis; mechanism of cell death [17]: early apoptosis; mechanism of cell death [18]: early apoptosis
CN1C[C@H](c2ccccc2Cl)[C@]2(NC(=S)N(c3ccc(O)cc3)C2=O)[C@]12C(=O)Nc1ccccc12 (racemic) [Compound 53]	> 100	> 100	> 100	> 100	
COc1ccc([C@H]2CN(C)[C@@]3(C(=O)Nc4ccc(Cl)cc43)[C@@]23NC(=S)N(c2ccc(O)cc2)C3=O)cc1OC (racemic) [Compound 57]	17 ± 1	20 ± 6.9	> 100	> 100	
CN1C[C@H](c2cccc(Cl)c2)[C@]2(NC(=S)N(c3ccc(F)c(Cl)c3)C2=O)[C@]12C(=O)Nc1ccc(Cl)cc12 (racemic) [Compound 43]	3.2 ± 1.6	5.7 ± 2.6	9.3 ± 4.6	9.5 ± 4.9	
CN1C[C@H](c2ccc(Cl)cc2)[C@]2(NC(=S)N(c3ccc(Cl)cc3)C2=O)[C@]12C(=O)Nc1ccc(Cl)cc12 (racemic) [Compound 37]	> 100	> 100	> 100	> 100	
COc1ccc([C@H]2CN(C)[C@@]3(C(=O)Nc4ccc(Br)cc43)[C@@]23NC(=S)N(c2ccc(O)cc2)C3=O)cc1OC (racemic) [Compound 56]	9 ± 2	30 ± 10.5	> 100	> 100	
CN1C[C@H](c2ccccc2Cl)[C@]2(NC(=S)N(c3ccc(O)cc3)C2=O)[C@]12C(=O)Nc1ccc(Cl)cc12 (racemic) [Compound 55]	7 ± 1	15.1 ± 1.2	> 100	> 100	
COc1ccc(C2CN(C)C3(C(=O)Nc4ccc(Cl)cc43)C23NC(=S)N(c2ccc(Cl)cc2)C3=O)cc1OC (stereo not drawn) [Compound 39, 1-(4-chlorophenyl)-4’-(3,4-dimethoxyphenyl)-1’-methyl-5’’’-chloro-2-thiooxodispiro[imidazolidine-4,3’-pyrrolidine-2’,3”-indoline]-2”,5-dione]	> 100	> 100	> 100	> 100	
CCOc1ccc(N2C(=O)[C@]3(NC2=S)[C@@H](c2ccc(F)cc2)CN(C)[C@@]32C(=O)Nc3ccccc32)cc1 (racemic) [Compound 30]	> 100	> 100	> 100	> 100	
COc1ccc([C@H]2CN(C)[C@@]3(C(=O)Nc4ccccc43)[C@@]23NC(=S)N(c2ccc(F)c(Cl)c2)C3=O)cc1 (racemic) [Compound 41]	> 100	> 100	> 100	> 100	
